Laboratory results reported in US5665367A, “Skin care compositions containing naringenin and/or quercetin and a retinoid” (Chesebrough-Pond's USA Co., Division of Conopco, Inc., priority 1996, dated 1997).
Like-named read-outs stand apart in the source and are kept apart here.

Columns and labels:
[1] = test system: transglutaminase I (TG1) in human keratinocytes; test: Transglutaminase assay (ELISA based TGase I assay) normalized to DNA in keratinocytes, Examples 2-4; type: cell-based; details: for inhibition of keratinocyte differentiation compared with retinoic acid: summary of the studies
Experimental: (§1) Human keratinocytes, isolated from neonatal foreskin by trypsin treatment were grown in Dulbecco Modification Eagle (DME) Hams F12 (1:1) medium/10% fetal calf serum in the presence of irradiated 3T3 mouse fibroblasts for establishing dividing keratinocyte colonies. Cells were grown under the above condition until their second passage and kept frozen for future use. Frozen second passage keratinocytes were thawed and plated into the above medium and grown for five days before they were switched to a serum-free MCDB 153-based medium keratinocyte growth medium (KGM) from Clonetics Corporation, San Diego, Calif., containing 0.15 mM Ca, or keratinocyte serum-free media (KSFM) from GIBCO containing 0.09 mM Ca). On day 7, when the cells were 80-90% confluent, they were trypsinized and plated in the serum-free medium for the various experiments.
(§2) During the process of terminal differentiation in the epidermis, a 15 nm thick layer of protein, known as the cornified envelope (CE) is formed on the inner surface of the cell periphery. The CE is composed of numerous distinct proteins which have been cross-linked together by the formation of N^ε -(γ-glutamyl) lysine isodipeptide bonds catalyzed by the action of at least two different transglutaminases (TGases) expressed in the epidermis. TGase 1 is expressed in abundance in the differentiated layers of the epidermis, especially the granular layer, but is absent in the undifferentiated basal epidermis. Thus TGase I is a useful marker of epidermal keratinocyte differentiation with high TGase I levels indicating a more differentiated state. An ELISA based TGase I assay, using a TGase I antibody, was used to assess the state of differentiation of the cultured keratinocytes in the examples that follow.
For Examples 2-4, the following procedure was used:
Keratinocytes (cultured as described above) were plated in 96 well plates at a density of 3,000 cells per well in 200 μl of cell culture media. After incubation for four days, the media was changed to media containing test compounds (six replicates per test). The cells were cultured for a further 72 hours after which time the media was aspirated and the plates stored at -70° C. After the plates were removed from the freezer, the cells were further freezed fractured by freezing and thawing and then washed 3x with PBS. The cells were incubated for one hour at room temperature (R/T) with TBS/5% BSA buffer. Cells were then incubated with 100 μl of monoclonal anti-human transglutaminase (IgG) mouse antibody (primary antibody) obtained from Biomedical Technologies Inc. diluted 1:2000 in TBS/1% BSA buffer for two hours at 37° C., and then rinsed six times with wash buffer (TBS/1% BSA/0.05% Tween-20). Cells were next incubated with 100 μl of Fab fragment, peroxidase conjugated anti-mouse IgG antibody (secondary antibody) from Amersham diluted 1:4,000 in wash buffer for two hours at 37° C. and then rinsed three times with wash buffer and three times with PBS. Cells were incubated with substrate solution (4mg o-phenylene diamine and 3.3 μl 30% H2 O2 in 10mL 0.1M citrate buffer, pH 5.0) for five minutes at R/T and in darkness (under aluminum foil). The reaction was stopped by the addition of 50 μl N H2 SO4. The absorbance of samples was read at 492 nm in the plate reader. Out of the six replicates, four were treated with both antibodies, two were treated only with the secondary antibody (i.e., to determine the background binding of the enzyme conjugated antibody). Transglutaminase I levels were determined by subtracted background from the readings from each treatment and determining the mean s.d. for the replicates exposed to both antibodies.
(§3) The level of TGase-1 detected after treatment of the cells could be influenced by cell number, i.e., the greater the number of cells the greater the level of TGase-1 detected. The level of TGase-1 was normalized to DNA content of the cells in the same well thus eliminating variation due to differences in cell number. […]

[2] = test system: transglutaminase (TGase I) in human keratinocytes; test: Transglutaminase assay (ELISA based TGase I assay) normalized to DNA in keratinocytes, Example 1; type: cell-based; details: for mean TGase/DNA × 10^-4 ± s.d / activity at 0.25 µM / activity at 0.025 µM / activity at 0.0025 µM: 72 hours, Table 1, n = 3; for decrease in transglutaminase level, dose dependence: 2.5×10^-9 to 2.5×10^-7 M; for activity at 0.25 µM / activity at 0.025 µM / activity at 0.0025 µM: Homo sapiens, Keratinocyte, read-out: mean TGase/DNA (% control)
Experimental: as §1, §2
For Example 1, the following procedure was used:
Keratinocytes (cultured as described above) were plated in 96 well plates at a density of 3,000 cells per well in 200 μl media. After incubation for four days the media was changed to media containing test compounds (six replicates per test). The cells were cultured for a further 72 hours after which time the media was aspirated and the plates stored at -70° C. Plates were removed from the freezer, and the cells washed with PBS. 100 μl sterile water was added and the cells were freeze fractured by freezing at -70° C. then thawing. The cells were incubated for one hour at room temperature (R/T) with PBS/3% BSA (wash buffer, bovine serum albumin), then rinsed with a fresh aliquot of wash buffer. Cells were incubated with 50 μl of primary antibodies monoclonal anti-human transglutaminase mouse antibody (IgG) obtained from Biomedical Industries diluted 1:2,000 in wash buffer for one hour, 37° C. then rinsed two times with wash buffer. Cells were then incubated with 50 μl of secondary antibody (Fab fragment, peroxidase conjugated anti-mouse IgG obtaining from Amersham) diluted 1:4,000 in wash buffer for one hour at 37° C., then rinsed two times with wash buffer. Cells were incubated with substrate solution (4 mg o-phenylene diamine and 3.3 μl 30% H2 O2 in 10 ml 0.1M citrate buffer pH 5.0) for five minutes, R/T, in darkness (under aluminum foil). The reaction was stopped by the addition of 50 μl N H2 SO4. The absorbance of samples was read at 492 nm in the plate reader. Out of the six replicates, four were treated with both antibodies, two were treated only with the secondary antibody (i.e., to determine background binding of enzyme conjugated Ab). TGase levels were determined by subtracting background from the readings from each treatment and determining mean ±s.d. for the replicates exposed to both Ab.
as §3

[3] = Example 4: 2.5×10^-7 M retinoic acid, 2.5×10^-7 M retinol, 10^-6 M quercetin alone
[4] = Example 2: 2.5×10^-7 M retinoic acid, 2.5×10^-9 M retinol, 10^-7 M naringenin alone
[5] = Example 3: 2.5×10^-7 M retinoic acid, 2.5×10^-8 M retinyl palmitate, 10^-8 M naringenin alone
[6] = 2.5 × 10^-7 M, 72 hour treatment, Table 4 (Example 4), n = 3
[7] = Homo sapiens, Keratinocyte, 72 h, 2.5 × 10^-7 M, 72 hour treatment, Table 4 (Example 4), n = 3, read-out: mean TGase/DNA (% control)

| repression of keratinocyte TG1 level (in words) [1, 5] | SMILES | repression of keratinocyte TG1 level (in words) [1, 3] | repression of keratinocyte TG1 level (in words) [1, 4] | inhibition of keratinocyte differentiation compared with retinoic acid [1] | decrease in transglutaminase level, dose dependence [2] | activity at 0.25 µM ([2]; 2.5 × 10^-7 M) [%] | activity at 0.025 µM ([2]; 2.5 × 10^-8 M) [%] | activity at 0.0025 µM ([2]; 2.5 × 10^-9 M) [%] | mean TGase/DNA × 10^-5 ± s.d [1, 6] | activity at 0.25 µM [1, 7] [%] | also measured |
| --- | --- | --- | --- | --- | --- | --- | --- | --- | --- | --- | --- |
|  | O=c1c(O)c(-c2ccc(O)c(O)c2)oc2cc(O)cc(O)c12 [Quercetin, quercetin] | only a small inhibitory effect |  |  |  |  |  |  |  |  | mean TGase/DNA × 10^-5 ± s.d ([1]; 10^-6 M quercetin, 72 hour treatment, Table 4 (Example 4), n = 3): 59.04 ± 3.38 × 10^-5; activity at 1 µM ([1]; Homo sapiens, Keratinocyte, 72 h, 10^-6 M quercetin, 72 hour treatment, Table 4 (Example 4), n = 3, read-out: mean TGase/DNA (% control)): 85% |
| small inhibitory effect | O=C1C[C@@H](c2ccc(O)cc2)Oc2cc(O)cc(O)c21 [Naringenin, naringenin] |  | no inhibitory effect |  |  |  |  |  |  |  | mean TGase/DNA × 10^-5 ± s.d ([1]; 10^-7 M naringenin, 72 hour treatment, Table 2 (Example 2), n = 3): 49.84 ± 2.76 × 10^-5; mean TGase/DNA × 10^-5 ± s.d ([1]; 10^-8 M naringenin, 72 hour treatment, Table 3 (Example 3), n = 3): 45.01 ± 1.90 × 10^-5; activity at 0.1 µM ([1]; Homo sapiens, Keratinocyte, 72 h, 10^-7 M naringenin, 72 hour treatment, Table 2 (Example 2), n = 3, read-out: mean TGase/DNA (% control)): 94%; activity at 0.01 µM ([1]; Homo sapiens, Keratinocyte, 72 h, 10^-8 M naringenin, 72 hour treatment, Table 3 (Example 3), n = 3, read-out: mean TGase/DNA (% control)): 89% |
| ineffective | CCCCCCCCCCCCCCCC(=O)OC/C=C(C)/C=C/C=C(C)/C=C/C1=C(C)CCCC1(C)C [Retinyl palmitate, retinyl palmitate] |  |  | significantly less effective than retinoic acid |  |  |  |  |  |  | mean TGase/DNA × 10^-5 ± s.d ([1]; 2.5 × 10^-8 M retinyl palmitate, 72 hour treatment, Table 3 (Example 3), n = 3): 47.32 ± 4.22 × 10^-5; activity at 0.025 µM ([1]; Homo sapiens, Keratinocyte, 72 h, 2.5 × 10^-8 M retinyl palmitate, 72 hour treatment, Table 3 (Example 3), n = 3, read-out: mean TGase/DNA (% control)): 93% |
|  | CC1=C(/C=C/C(C)=C/C=C/C(C)=C/CO)C(C)(C)CCC1 [Retinol, retinol] | ineffective | ineffective | significantly less effective than retinoic acid | dose dependent | 47 | 77 | > 100 | 61.93 ± 5.18 × 10^-5 | 90 | mean TGase/DNA × 10^-5 ± s.d ([1]; 2.5 × 10^-9 M retinol, 72 hour treatment, Table 2 (Example 2), n = 3): 48.31 ± 5.31 × 10^-5; mean TGase/DNA (% control) ([1]; 2.5 × 10^-9 M retinol, 72 hour treatment, Table 2 (Example 2), n = 3, 0.0025 µM, 4320 min): 91%; activity at 0.0025 µM ([1]; Homo sapiens, Keratinocyte, 72 h, 2.5 × 10^-9 M retinol, 72 hour treatment, Table 2 (Example 2), n = 3, read-out: mean TGase/DNA (% control)): 92% |

| SMILES | repression of keratinocyte TG1 level (in words) [1, 5] | repression of keratinocyte TG1 level (in words) [1, 3] | repression of keratinocyte TG1 level (in words) [1, 4] | inhibition of keratinocyte differentiation compared with retinoic acid [1] | decrease in transglutaminase level, dose dependence [2] | activity at 0.25 µM ([2]; 2.5 × 10^-7 M) [%] | activity at 0.025 µM ([2]; 2.5 × 10^-8 M) [%] | activity at 0.0025 µM ([2]; 2.5 × 10^-9 M) [%] | mean TGase/DNA × 10^-5 ± s.d [1, 6] | activity at 0.25 µM [1, 7] [%] | also measured |
| --- | --- | --- | --- | --- | --- | --- | --- | --- | --- | --- | --- |
| CC1=C(/C=C/C(C)=C/C=C/C(C)=C/C(=O)O)C(C)(C)CCC1 [Retinoic acid, retinoic acid] | very effective | effective | very effective |  | in a dose dependant manner decreased transglutaminase I levels | 7 | 55 | 77 | 35.91 ± 3.01 × 10^-5 | 52 | mean TGase/DNA × 10^-4 ± s.d ([2]; 2.5 × 10^-7 M): 0.16 ± 0.11 × 10^-4; mean TGase/DNA × 10^-4 ± s.d ([2]; 2.5 × 10^-8 M): 1.34 ± 0.40 × 10^-4; mean TGase/DNA × 10^-4 ± s.d ([2]; 2.5 × 10^-9 M): 1.87 ± 0.49 × 10^-4; decrease in transglutaminase level, dose dependence ([2]; listed as retinoic acid): dose dependent; effect on keratinocyte differentiation ([2]; all concentrations tested, versus ethanol control, Example 1): decreased keratinocyte differentiation; extent of decrease versus corresponding retinol treatments ([2]; all concentrations tested, Example 1): significantly greater extent; mean TGase/DNA × 10^-5 ± s.d ([1]; 2.5 × 10^-7 M RA, 72 hour treatment, Table 2 (Example 2), n = 3): 22.47 ± 2.31 × 10^-5; mean TGase/DNA × 10^-5 ± s.d ([1]; 2.5 × 10^-7 M RA, 72 hour treatment, Table 3 (Example 3), n = 3): 16.31 ± 2.58 × 10^-5; activity at 0.25 µM ([1]; Homo sapiens, Keratinocyte, 72 h, 2.5 × 10^-7 M RA, 72 hour treatment, Table 2 (Example 2), n = 3, read-out: mean TGase/DNA (% control)): 42%; activity at 0.25 µM ([1]; Homo sapiens, Keratinocyte, 72 h, 2.5 × 10^-7 M RA, 72 hour treatment, Table 3 (Example 3), n = 3, read-out: mean TGase/DNA (% control)): 32% |
